Experimental data from patent US8329413B2, “Glycoproteomic probes for fluorescent imaging of fucosylated glycans in vivo” (Academia Sinica, priority 2007, dated 2012).

What was measured:
[1] = system: human alpha-1,3-fucosyltranseferases (FucTs) II-VII; assay: Standard microtiter plate assay of tolerability of GDP-fucose analogs for fucosyltransferases; type: biochemical
Text: (§1) Briefly, fucose analogs 4 and 5 are converted to the corresponding 1-bromides, which then are substituted directly by a phosphate group. […] Therefore, TiBr4 is used instead, as described by Srivastava. The fucose-1-phosphates are converted to the corresponding GDP-fucose analogs by using 1H-tetrazole as a catalyst. The tolerability of GDP-fucose analogs 8 and 9 for human alpha-1,3-fucosyltranseferases (FucTs) II-VII is confirmed by using a standard microtiter plate assay. They are then used to elaborate the glycoconjugate substrate, human alpha1-acid glycoprotein (AGP), an acute-phase protein. As fucosylation of AGP is associated with inflammatory diseases, the degree of fucosylation of AGP could be a potential diagnostic or prognostic marker. AGP was fucosylated by using FucT V in the presence of GDP-fucose analogs 8 or 9. After gel filtration, the fucosylated AGP is labeled by using the corresponding naphthalimide 1a or 1b for 4 h at room temperature. Labeled protein is analyzed by SDS/PAGE and visualized by UV light (365 nm). […] Treated protein was separated by SDS/PAGE and visualized by UV light (Top) and Coomassie blue staining (CBB) (Middle). (Bottom) Modified GDP-fucose.

[2] = Stoichiometric study of L-histidine in the cycloaddition of 1a and 2a; conditions: relative to copper ion; L-histidine 0-3.0 mM, CuSO4 1.0 mM
Method: The overall volume in each vial was 250 microliters containing a solution of 1,8-naphthalimide 1a (0.5 mM), azidofucose 2a (1.0 mM), CUSO4 (1.0 mM), L-histidine (0-3.0 mM) and sodium ascorbate (5.0 mM) in DMSO/water (56% DMSO). The reactions were allowed to stand at room temperature for 24 hours. The catalytic activity was determined by the same method described above (FIG. 10).
In this condition, 60% of 1a was converted to the product 10 after 1 h at room temperature and the reaction was completed in less than 6 h. To confirm the effects of L-His on the reaction, we measured the time-course of the reaction by fluorescence spectrometer. Conditions: 1,8-naphthalimide 1a (0.1 mM), azidofucose 2a (1.0 mM), CuSO4 (2.0 mM), L-histidine (0 or 4.0 mM) and sodium ascorbate (100 mM) in 50 mM HEPES buffer (containing 6% DMSO). After mixing all reagents, the fluorescence intensity was measured in 5 min intervals at 37° C. by a fluorescence spectrophotometer (FIG. 11). […] Fluorescence intensities were monitored at λ ex 357 nm and λem 462 nm.

[3] = Rapid screening of L-amino acids as cycloaddition ligand catalysts using fluorogenic probe 1a; conditions: L-amino acid 1.0 mM, CuSO4 1.0 mM, 1a + 2a, 24 h room temperature
Method: A fluorescence quenching technique was used to identify catalysts for the copper-catalyzed cycloaddition. […] In such a screen, the reaction between 1a and 2a is performed in microtiter plates in the presence of individual amino acids. […] (Upper) The microtiter plate was visualized under long wavelength UV lamp (365 nm). (Lower) The fluorescent intensities of each well are measured by a fluorescence plate reader.
The effect of the ligand effect on the reaction rate was visualized by holding the 96-well microtiter plate under a long wavelength UV lamp (365 nm) and analyzed with a standard fluorescence multiplate reader.
The overall volume in each vial was 250 microliters containing a solution of 1,8-naphthalimide 1a (0.5 mM), azidofucose 2a (1.0 mM), CuSO4 (1.0 mM), L-amino acid (1.0 mM) and sodium ascorbate (5.0 mM) in DMSO/water (56% DMSO). The reactions were allowed to stand at room temperature for 24 hours. The reaction mixture was diluted 60 times with 50 mM HEPES buffer (pH 7.2) and then transferred to 96-well microtiter plate, and fluorescence intensity (excitation, 365 nm; emission, […]) was determined with a Fusion plate reader (Perkin Elmer/Packard).

[4] = Decomposition of probe 1b by LC-MS; type: physicochemical
Method: Bicyclic aromatic azides are known to easily decompose by thermolysis or photolysis through a highly reactive nitrene intermediate (FIG. 12).
Thus we analyzed the decomposition of 1b using LC-MS (FIG. 13). […] The compounds were monitored at 350 nm by using an Agilent SB C8 50×4.6 mm column. (a) 1b. (b) Cycloaddition reaction with 7. (c) After 12 h incubation without 7. (d) The synthesized 4-amino derivative 1c (1). See typical experimental procedure of cycloaddition for the reaction conditions.
In the presence of 6-alkyne fucose 2b, probe 1b was completely converted into the product 3b. However, without 6-alkyne fucose […], probe 1b decomposed into a fluorescent compound with a molecular weight corresponding to the 4-amino derivative 1c ([M+H]^+ 241; ca. 80% conversion after 12 h incubation at room temperature).

[5] = Fluorescence spectra and quantum yields of probes and click products; type: physicochemical; conditions: before click reaction
Method: Reactivity and click-activated fluorogenic properties of compounds 1a and 1b were tested by performing a Cu(I)-catalyzed azide-alkyne [3+2] cycloaddition (CuAAC) with model fucose analogs 2a and 2b, respectively, as shown in FIG. 3. […] As expected, the ligation reactions produced in a significant increase in fluorescence intensity. The emission maximum of 3a was 462 nm with a quantum yield of 0.36 when excited at 357 nm. […] Unfortunately, the reaction rate between alkyne probe 1a and azidofucose 2a was very slow. Although the reaction of azido probe 1b was completed in <30 min. only 10% of 1a was converted to 3a after 24 h by using the same conditions (monitored by LC-MS). […]
All chemicals were purchased as reagent grade and used without further purification. Reactions were monitored with analytical thin-layer chromatography (TLC) on silica gel 60 F254 plates and visualized under UV (254 nm) and/or by staining with 5% sulfuric acid or acidic ceric ammonium molybdate. ^1H— or ^13C-NMR spectra were measured on a Bruker DRX-500 or DRX-600 using CDCl3 or DMSO-d6 as the solvent (1H, 500 or 600 MHz; ^13C, 125 or 150 MHz). Chemical shifts (in ppm) were determined relative to either tetramethylsilane (0 ppm) or deuterated chloroform (77 ppm). […] Fluorescent excitation and emission were recorded using a HITACHI F-2000 fluorescence spectrophotometer. […]

[6] = system: human alpha1-acid glycoprotein (AGP); assay: Fluorescent labeling of AGP fucosylated by FucT V, SDS/PAGE visualized by UV light; type: biochemical; conditions: AGP fucosylated with FucT V and GDP-fucose analog 8, 9 or 10, then labeled with 1a or 1b
Text: as §1
Human alpha1-acid glycoprotein (0.33 mg/mL), pretreated with alpha-fucosidase, was incubated with human alpha-1,3-fucosyltransferase V (100 mU/mL) in MOPS buffer (50 mM, pH 7.2) containing 150 mM NaCl, 10 mM MnCl2, 4 mM ATP, 0.2 mM GDP-fucose analog (8-10). After incubation at 37° C. for 8 h, additional GDP-fucose derivative (final 0.4 mM) was added and the reaction mixture was incubated at 37° C. for 12 h. […]
The fucosylated glycoconjugate was dissolved in HEPES buffer (50 mM, pH 7.6), and added to a solution containing CuSO4 (0.2 mM), 1.0 mM sodium ascorbate, the tris(triazolyl)amine ligand (20) (0.2 mM, stock in DMSO), and the appropriate naphthalimide ligation probe 1a or 1b (0.1 mM, stock in DMSO, final concentration of DMSO; 10%)). After 1 h at room temperature, the mixture was passed through NAP-5 column in water and lyophilized, and analyzed by SDS-PAGE.

For `C#C[C@@H]1O[C@H](OP(=O)(O)OP(=O)(O)OC[C@H]2O[C@@H](n3cnc4c(=O)[nH]c(N)nc43)[C@H](O)[C@@H]2O)[C@@H](O)[C@H](O)[C@@H]1O.CCN(CC)CC` [Compound 8, Guanosine 5′-diphospho-6,7-deoxy-beta-L-galacto-hept-6-ynopyranoside triethylammonium salt], the “tolerability as substrate for FucTs” value [1] was “confirmed”.

In the case of `N[C@@H](Cc1c[nH]cn1)C(=O)O` [Histidine, histidine], the “amount of ligand giving maximum effect on the catalysis” value [2] was 2.0 mol equivalent and the “enhancement of reaction rate compared to ligand-free conditions” value [3] was “about 6 times”.

With `CCN1C(=O)c2cccc3c(N=[N+]=[N-])ccc(c23)C1=O` [Compound 1b, 4-Azido-N-ethyl-1,8-naphthalimide] the “decomposition to 4-amino derivative 1c, conversion” value ([4]; after 12 h incubation at room temperature, without 6-alkyne fucose) was “ca. 80%”, the “stability of probe during labeling” value ([4]; during AGP labeling reaction) was “slowly decomposed into a strongly fluorescent 4-amino derivative” and the “fluorescence of parent probe” value [5] was “no fluorescence”. For the same compound, the “fluorescent band of labeled AGP on SDS/PAGE under UV light (365 nm)” value [6] was “clear fluorescent bands”.
